From US20200172927A1, “REP[…] […] FOR TREATMENT OF NEURODEGENERATION” (The Trustees of Columbia University in the City of New York, priority 2017, published 2020)

System: HIF2a and GLUT1
Experiment: Immunoblot of retinas from B6 mice orally fed VH298 for 3 days
Assay type: in vivo
Conditions: 6-week old B6 mice, oral, VH298 in oil 10, 20, or 50 mg/kg, retinas collected 4 hours after last feeding, vs oil only control
Description: 6-week old B6 mice were orally fed for 3 days with VH298 in oil (10, 20, or 50 mg/kg) or oil only for the control group. Each group contained 3 mice. 4 hours after the last feeding, mice retinas were collected and processed immediately for immunoblot. Protein levels of HIF2a, and Glut1 were shown. B-actin was used as loading control.
6-week old B6 mice were orally fed for 3 days with VH298 in oil (10, 20, or 50 mg/kg) or oil only for the control group. Each group contained 3 mice. 4 hours after the last feeding, mice retinas were collected and processed immediately for immunoblot.

Cc1ncsc1-c1ccc(CNC(=O)[C@@H]2C[C@@H](O)CN2C(=O)[C@@H](NC(=O)C2(C#N)CC2)C(C)(C)C)cc1 [VH298, (2S,4R)-1-((S)-2-(1-cyanocyclopropanecarboxamido)-3,3-dimethylbutanoyl)-4-hydroxy-N-(4-(4-methylthiazol-5-yl)benzyl)pyrrolidine-2-carboxamide]
Protein level of GLUT1 in retina (immunoblot): dose-dependent increase | Protein level of HIF2a in retina (immunoblot): dose-dependent increase
